Reference: US20210255193A1, “LYSINE REACTIVE PROBES AND USES THEREOF” (The Scripps Research Institute, priority 2017, published 2021)

Assays:
Assay in all cases: competitive isoTOP-ABPP
Type in all cases: binding
[1] = biological target: T1, RINT1 RAD50-interacting protein 1 (Homo sapiens, UniProt Q6NUQ1); conditions: for isoTOP-ABPP ratio (R) at liganded lysine Q6NUQ1_K771: 50 uM, in vitro, sol, 231; for isoTOP-ABPP ratio, lysine Q6NUQ1_K771: 50 uM_231_sol_in vitro
T1 construct: isoTOP-ABPP experiments performed in cell lysates (in vitro); endogenous in cells; host or cells: soluble proteome of human cancer cell lines (MDA-MB-231; Ramos and Jurkat also prepared)
Procedure, shortened: (§1)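 Here, isoTOP-ABPP measures loss of STP-alkyne labeling at individual lysines after fragment exposure in lysate. Activated esters are dosed at 50 μM, guanidinylating agents at 100 μM; the probe follows at 0.1 mM for 1 h. R ≥4 marks a liganded lysine.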

[2] = biological target: T2, CUL2 Cullin-2 (Homo sapiens, UniProt Q13617); conditions: for isoTOP-ABPP ratio (R) at liganded lysine Q13617_K489: 50 uM, in vitro, sol, 231; for isoTOP-ABPP ratio, lysine Q13617_K489: 50 uM_231_sol_in vitro
T2 construct: isoTOP-ABPP experiments performed in cell lysates (in vitro); endogenous in cells; host or cells: soluble proteome of human cancer cell lines (MDA-MB-231, Ramos, Jurkat)
Procedure, shortened: as §1

[3] = biological target: T3, TRMT10C Mitochondrial ribonuclease P protein 1 (Homo sapiens, UniProt Q7L0Y3); conditions: for isoTOP-ABPP ratio (R) at liganded lysine Q7L0Y3_K325: 50 uM, in vitro, sol, 231; for isoTOP-ABPP ratio, lysine Q7L0Y3_K325: 50 uM_231_sol_in vitro
T3 construct: isoTOP-ABPP experiments performed in cell lysates (in vitro); endogenous in cells; host or cells: soluble proteome of human cancer cell lines (MDA-MB-231; Ramos and Jurkat also prepared)
T3 sequence (Q7L0Y3 40-403): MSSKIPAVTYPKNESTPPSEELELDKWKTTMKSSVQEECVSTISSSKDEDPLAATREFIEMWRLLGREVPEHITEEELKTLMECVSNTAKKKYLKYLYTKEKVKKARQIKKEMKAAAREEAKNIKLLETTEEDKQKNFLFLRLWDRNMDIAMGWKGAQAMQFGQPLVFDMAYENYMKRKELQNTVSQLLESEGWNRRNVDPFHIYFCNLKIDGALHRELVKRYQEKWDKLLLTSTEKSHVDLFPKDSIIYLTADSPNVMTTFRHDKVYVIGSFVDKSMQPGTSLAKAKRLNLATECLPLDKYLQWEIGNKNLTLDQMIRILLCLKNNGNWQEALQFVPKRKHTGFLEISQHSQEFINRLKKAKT
Procedure, shortened: as §1

[4] = biological target: T4, GSTT2B Glutathione S-transferase theta-2B (Homo sapiens, UniProt P0CG30); conditions: for isoTOP-ABPP ratio (R) at liganded lysine P0CG30_K53: 50 uM, in vitro, sol, 231; for isoTOP-ABPP ratio, lysine P0CG30_K53: 50 uM_231_sol_in vitro
T4 construct: isoTOP-ABPP experiments performed in cell lysates (in vitro); endogenous in cells; host or cells: MDA-MB-231 soluble lysate
T4 sequence (P0CG30 1-244): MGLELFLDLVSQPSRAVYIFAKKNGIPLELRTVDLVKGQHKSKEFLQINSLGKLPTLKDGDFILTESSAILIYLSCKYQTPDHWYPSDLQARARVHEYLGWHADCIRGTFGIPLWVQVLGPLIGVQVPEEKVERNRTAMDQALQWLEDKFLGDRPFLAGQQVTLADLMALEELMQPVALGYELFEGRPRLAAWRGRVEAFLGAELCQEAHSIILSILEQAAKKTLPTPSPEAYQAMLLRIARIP
Procedure, shortened: as §1

[5] = biological target: T5, GTPBP3 tRNA modification GTPase GTPBP3, mitochondrial (Homo sapiens, UniProt Q969Y2); conditions: for isoTOP-ABPP ratio (R) at liganded lysine Q969Y2_K492: 50 uM, in vitro, sol, 231; for isoTOP-ABPP ratio, lysine Q969Y2_K492: 50 uM_231_sol_in vitro
T5 construct: isoTOP-ABPP experiments performed in cell lysates (in vitro); endogenous in cells; host or cells: soluble proteome of human cancer cell lines (MDA-MB-231; Ramos and Jurkat also prepared)
T5 sequence (Q969Y2 21-492): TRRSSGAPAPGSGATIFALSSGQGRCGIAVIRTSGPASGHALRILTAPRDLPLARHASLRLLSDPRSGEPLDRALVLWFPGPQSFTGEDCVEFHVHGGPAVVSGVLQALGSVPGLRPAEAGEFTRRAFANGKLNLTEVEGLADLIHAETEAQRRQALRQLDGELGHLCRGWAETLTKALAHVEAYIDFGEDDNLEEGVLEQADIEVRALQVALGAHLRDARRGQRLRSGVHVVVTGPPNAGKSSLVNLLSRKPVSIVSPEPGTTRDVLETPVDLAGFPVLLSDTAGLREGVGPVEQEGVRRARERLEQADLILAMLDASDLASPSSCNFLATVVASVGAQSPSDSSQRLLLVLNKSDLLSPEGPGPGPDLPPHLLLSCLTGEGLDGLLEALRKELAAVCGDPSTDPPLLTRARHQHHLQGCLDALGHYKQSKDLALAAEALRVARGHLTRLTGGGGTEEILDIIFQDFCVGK
Procedure, shortened: as §1

T2 sequence (Q13617 whole entry): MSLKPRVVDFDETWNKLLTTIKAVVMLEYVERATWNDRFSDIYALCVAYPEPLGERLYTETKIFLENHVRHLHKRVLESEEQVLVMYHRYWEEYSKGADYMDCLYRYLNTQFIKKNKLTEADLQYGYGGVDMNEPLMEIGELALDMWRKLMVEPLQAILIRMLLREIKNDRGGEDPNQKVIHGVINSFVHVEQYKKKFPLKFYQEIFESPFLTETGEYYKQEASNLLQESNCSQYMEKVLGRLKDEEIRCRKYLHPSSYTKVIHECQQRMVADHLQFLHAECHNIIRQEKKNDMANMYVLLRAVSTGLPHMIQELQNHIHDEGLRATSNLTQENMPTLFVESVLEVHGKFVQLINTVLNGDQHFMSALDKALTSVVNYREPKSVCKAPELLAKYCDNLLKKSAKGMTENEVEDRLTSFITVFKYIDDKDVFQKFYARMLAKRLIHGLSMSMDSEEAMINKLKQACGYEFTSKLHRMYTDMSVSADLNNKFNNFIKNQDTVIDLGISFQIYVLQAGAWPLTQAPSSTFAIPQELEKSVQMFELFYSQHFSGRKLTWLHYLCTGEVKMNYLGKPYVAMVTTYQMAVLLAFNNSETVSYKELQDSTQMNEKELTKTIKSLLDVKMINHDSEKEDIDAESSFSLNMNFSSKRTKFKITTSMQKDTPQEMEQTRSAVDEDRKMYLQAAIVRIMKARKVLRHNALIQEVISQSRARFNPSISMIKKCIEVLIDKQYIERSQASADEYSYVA
T1 sequence (Q6NUQ1 whole entry): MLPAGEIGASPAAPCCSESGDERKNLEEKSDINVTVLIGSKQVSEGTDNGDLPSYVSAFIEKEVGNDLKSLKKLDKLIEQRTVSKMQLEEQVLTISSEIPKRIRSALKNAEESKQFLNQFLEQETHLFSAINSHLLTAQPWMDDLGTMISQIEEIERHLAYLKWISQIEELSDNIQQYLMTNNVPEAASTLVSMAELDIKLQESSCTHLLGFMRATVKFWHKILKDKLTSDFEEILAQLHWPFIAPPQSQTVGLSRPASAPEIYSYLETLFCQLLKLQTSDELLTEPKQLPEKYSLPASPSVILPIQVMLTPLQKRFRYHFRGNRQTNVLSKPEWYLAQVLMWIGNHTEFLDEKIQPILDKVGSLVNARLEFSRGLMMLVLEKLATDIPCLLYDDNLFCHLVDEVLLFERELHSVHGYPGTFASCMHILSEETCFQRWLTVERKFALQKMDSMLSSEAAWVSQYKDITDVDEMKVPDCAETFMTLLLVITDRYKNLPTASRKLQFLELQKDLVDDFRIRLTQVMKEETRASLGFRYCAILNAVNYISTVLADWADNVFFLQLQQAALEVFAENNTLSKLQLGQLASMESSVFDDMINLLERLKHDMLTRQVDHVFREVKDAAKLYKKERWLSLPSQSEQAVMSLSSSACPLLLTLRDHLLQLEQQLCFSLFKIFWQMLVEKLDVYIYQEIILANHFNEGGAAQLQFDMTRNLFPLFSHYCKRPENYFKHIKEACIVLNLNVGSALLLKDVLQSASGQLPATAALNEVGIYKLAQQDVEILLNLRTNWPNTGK

Row | SMILES | isoTOP-ABPP ratio (R) at liganded lysine Q6NUQ1_K771 [1] | isoTOP-ABPP ratio (R) at liganded lysine Q13617_K489 [2] | isoTOP-ABPP ratio (R) at liganded lysine Q7L0Y3_K325 [3] | isoTOP-ABPP ratio (R) at liganded lysine P0CG30_K53 [4] | isoTOP-ABPP ratio (R) at liganded lysine Q969Y2_K492 [5] | isoTOP-ABPP ratio, lysine Q6NUQ1_K771 [1] | isoTOP-ABPP ratio, lysine Q13617_K489 [2] | isoTOP-ABPP ratio, lysine Q7L0Y3_K325 [3] | isoTOP-ABPP ratio, lysine P0CG30_K53 [4] | isoTOP-ABPP ratio, lysine Q969Y2_K492 [5]
1 | O=C(CC12CC3CC(CC(C3)C1)C2)Oc1ccc([N+](=O)[O-])cc1[N+](=O)[O-] [fragment 38, 2,4-Dinitrophenyl 2-(adamantan-1-yl)acetate] | 1.2 | 1.4 | 0.8 | 0.8 | 1.1 | – | – | – | – | –
2 | O=C(Oc1ccc([N+](=O)[O-])cc1[N+](=O)[O-])c1ccc(Oc2ccccc2)cc1 [fragment 39, 2,4-Dinitrophenyl 4-phenoxybenzoate] | 1.5 | 20.0 | 0.9 | 0.7 | 1.2 | – | – | – | – | –
3 | O=C(Oc1ccc([N+](=O)[O-])cc1[N+](=O)[O-])c1ccccc1Nc1cccc(C(F)(F)F)c1 [fragment 40, 2,4-Dinitrophenyl 2-((3-(trifluoromethyl)phenyl)amino)benzoate] | 1.1 | 20.0 | 0.9 | 0.6 | 0.6 | – | – | – | – | –
4 | CC(=O)Oc1ccc([N+](=O)[O-])cc1[N+](=O)[O-] [fragment 43, 2,4-Dinitrophenyl acetate] | 1.0 | 1.2 | 1.0 | 0.6 | 1.5 | – | – | – | – | –
5 | N#Cc1ccc(C(=O)Oc2ccc([N+](=O)[O-])cc2[N+](=O)[O-])cc1 [fragment 44, 2,4-Dinitrophenyl 4-cyanobenzoate] | – | – | – | – | – | 1.7 | 0.8 | 1.3 | 0.6 | 0.9
6 | O=C(CCc1ccc2c(c1)OCO2)Oc1ccc([N+](=O)[O-])cc1[N+](=O)[O-] [fragment 45, 2,4-Dinitrophenyl 3-(benzo[d][1,3]dioxol-5-yl)propanoate] | – | – | – | – | – | 1.0 | 1.2 | 1.0 | 0.5 | 1.4
7 | O=C(ON1C(=O)CCC1=O)c1cc(C(F)(F)F)cc(C(F)(F)F)c1 [fragment 46, 3,5-Bis(trifluoromethyl)benzoic acid NHS ester] | – | – | – | – | – | 20.0 | 1.0 | 1.0 | 1.8 | 1.9
8 | O=C(Oc1c(F)c(F)c(C(F)(F)F)c(F)c1F)c1cc(C(F)(F)F)cc(C(F)(F)F)c1 [fragment 47, 2,3,5,6-Tetrafluoro-4-(trifluoromethyl)phenyl 3,5-bis(trifluoromethyl)benzoate] | – | – | – | – | – | 1.2 | 0.8 | 1.1 | 0.6 | 1.7
